Assay results published in patent publication US20110009351A1, “SCREENING ASSAY TO IDENTIFY CORRECTORS OF PROTEIN TRAFFICKING DEFECTS” (Traffick Therepeutics Inc., priority 2007, published 2011).
Structures can show the parent of a compound that is named as a salt.

Legend:
ΔF508-CFTR = ΔF508-CFTR (Homo sapiens, UniProt P13569, DEL508-508); format: cell-based; parameters: which was then ligated into full length pNUT-CFTR linearized using Hpa1 and Pml1; expressed in transfected cells; details: for hit in screen (class letter) / hit in screen (score): Prestwick library, initial corrector assay; for hit in screen (class letter) / ΔF508-CFTR correctors identified by highthroughput screening: hit class: BHK cells; for hit in screen (score): standard deviations above untreated controls; for signal in the trafficking assay / ΔF508-CFTR correctors identified by highthroughput screening: hit class: Microsource Discovery library, 20 μM; for signal in the trafficking assay: medium and weak hits; for ΔF508-CFTR correctors identified by highthroughput screening: hit class: 37° C.
ΔF508-CFTR, sequence (P13569 with tags, fused parts or gaps DEL508-508): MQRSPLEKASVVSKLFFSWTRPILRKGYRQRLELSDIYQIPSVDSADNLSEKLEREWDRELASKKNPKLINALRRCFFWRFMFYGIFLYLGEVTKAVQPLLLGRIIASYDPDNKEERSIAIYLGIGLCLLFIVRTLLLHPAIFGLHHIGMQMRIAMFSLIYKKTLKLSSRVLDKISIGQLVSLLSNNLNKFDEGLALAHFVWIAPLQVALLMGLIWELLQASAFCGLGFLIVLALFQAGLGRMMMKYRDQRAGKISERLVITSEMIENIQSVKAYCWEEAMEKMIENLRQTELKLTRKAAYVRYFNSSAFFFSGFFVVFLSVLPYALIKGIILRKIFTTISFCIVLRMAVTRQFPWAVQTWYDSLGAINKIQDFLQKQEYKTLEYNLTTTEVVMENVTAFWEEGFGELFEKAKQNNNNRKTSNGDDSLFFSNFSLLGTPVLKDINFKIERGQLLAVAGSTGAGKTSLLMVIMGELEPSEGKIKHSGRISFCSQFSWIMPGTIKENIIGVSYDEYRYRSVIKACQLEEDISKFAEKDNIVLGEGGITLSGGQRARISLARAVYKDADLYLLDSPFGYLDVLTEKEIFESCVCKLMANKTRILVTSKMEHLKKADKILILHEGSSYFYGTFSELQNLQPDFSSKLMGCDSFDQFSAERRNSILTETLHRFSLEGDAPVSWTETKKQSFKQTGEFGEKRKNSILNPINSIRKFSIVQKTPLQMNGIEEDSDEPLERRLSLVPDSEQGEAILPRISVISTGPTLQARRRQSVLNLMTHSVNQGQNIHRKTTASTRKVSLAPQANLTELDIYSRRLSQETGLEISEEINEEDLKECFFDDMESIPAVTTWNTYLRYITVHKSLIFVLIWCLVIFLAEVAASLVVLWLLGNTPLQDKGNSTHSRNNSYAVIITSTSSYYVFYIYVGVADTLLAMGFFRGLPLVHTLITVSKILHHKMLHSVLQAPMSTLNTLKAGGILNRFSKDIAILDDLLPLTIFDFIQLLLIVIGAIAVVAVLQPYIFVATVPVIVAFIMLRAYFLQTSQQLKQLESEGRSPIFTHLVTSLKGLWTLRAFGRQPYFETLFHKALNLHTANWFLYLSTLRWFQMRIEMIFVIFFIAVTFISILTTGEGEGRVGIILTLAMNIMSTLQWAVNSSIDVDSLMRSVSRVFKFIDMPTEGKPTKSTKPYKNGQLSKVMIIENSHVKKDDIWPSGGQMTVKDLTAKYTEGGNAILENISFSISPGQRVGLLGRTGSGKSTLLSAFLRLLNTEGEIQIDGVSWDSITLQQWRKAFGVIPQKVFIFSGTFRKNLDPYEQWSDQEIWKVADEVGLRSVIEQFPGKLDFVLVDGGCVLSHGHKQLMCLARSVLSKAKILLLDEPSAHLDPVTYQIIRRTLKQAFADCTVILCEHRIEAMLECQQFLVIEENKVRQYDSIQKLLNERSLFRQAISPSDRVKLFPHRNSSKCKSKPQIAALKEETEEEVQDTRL
Experimental: BHK cells expressing 3HA-tagged ΔF508-CFTR between passages 5-8 were seeded in 96-well plates (Corning half area, black-sided, clear bottom) at 15,000 cells per well and incubated with culture medium for 24 h at 37° C. Each well was then treated with a different test compound (80 compounds per plate) for 24 h at 20 μM final concentration. The remaining 16 wells on each plate were used for control conditions. […] Cells were fixed in a 4% paraformaldehyde solution, washed with PBS, and blocked with PBS containing 5% fetal bovine serum (FBS) for 1 hat 4° C.
Blocking solution was replaced with 15 μl of primary antibody solution containing 1% FBS and mouse monoclonal anti-HA antibody (1:150 dilution, Sigma) in PBS. The plates were sealed and left at 4° C. overnight. After three washes with 100 μl PBS, cells were incubated for 1 h with 15 μl of secondary antibody solution containing 1% FBS and anti-mouse IgG conjugated with FITC (1:100 dilution, Sigma) in PBS. Cells were again washed three times with 100 μl of PBS and analyzed in a plate reader (Analyst™ HT96.384, Biosystems; 488 nm excitation/510 nm emission). […] The mean fluorescence of four untreated wells was used as the background signal when calculating deviations of the 80 compound-treated wells. Hits were then cherry-picked into reservoir plates and re-tested in duplicate using the same assay.
BHK cells expressing ΔF508-CFTR were incubated with test compounds (20 μM) for 24 hours at 37° C. in a 96 well format. Plasma membrane expression of ΔF508-CFTR was then assayed by immunofluorescence using a primary antibody directed against the inserted 3HA tag and a secondary antibody conjugated with a fluorophore (FITC). […] The positive compounds were selected and retested in duplicate to obtain an N of 3. At the re-screening stage, the intrinsic fluorescence of each potential hit was also measured and the fluorescent ones were not considered further.
Screening was performed using BHK cells that stably express F508-CFTR bearing three tandem haemagglutinin-epitope tags (3HA) and linker sequences in the fourth extracellular loop after amino acid 901 (Howard et al., 1995; Carlile et al., 2007; Robert et al., 2008). […] Screening was performed using the Prestwick Chemical Library of 1120 high-purity compounds.

F508del CFTR = target: T1, F508del CFTR (Homo sapiens, UniProt P13569, DEL508-508); assay: YFP fluorescence quenching functional assay (iodide influx), HEK293 cells with F508del CFTR and halide sensitive YFP; format: cell-based; details: for remaining activity at 10 µM: HEK293, read-out: % YFP quench
T1 construct: expressed in transfected cells; host or cells: HEK293 Griptite cells stably expressing F508del CFTR, transiently transfected with halide-sensitive eYFP
T1 sequence (P13569 with tags, fused parts or gaps DEL508-508): as above
Experimental: In addition to the MDS compounds, the 1120 Prestwick Library compounds were screened. (See FIGS. 7 to 12.) Of the compounds, one qualified as a “strong” hit, 3 as “medium” hits and 57 as “weak” hits. The Z score for the assay was 0.62. The top 50 hits were further tested in a counter screen in which the halide sensitive fluorescent compound (YFP) was expressed inside cells (Table 2). After incubation with the test compounds the ability of the cells to uptake iodide was measure by decreasing YFP fluorescence. In these cells this can only occur if functional CFTR is present at the cell surface (FIG. 7). The hits were also tested for the appearance of the Band C form of CFTR. […] The functionality of the compounds was further studied by the use of Iodide efflux assays for each compound in both BHK and the more physiologically relevant CFBE cells. […] FIG. 10 is a table of results for the 15 hit compounds which summarizes many experiments. […] The results for the best 15 compounds from the Prestwick Library, or “Prestwick 15”, are shown FIGS. 8, 9 and 10.
Strongly adhesive Human […] Kidney cells stably expressing both the human macrophage scavenger receptor (HEK293 Griptite, Invitrogen) and F508del CFTR were plated in 96-well plates and transiently transfected with pcDNA3 plasmid encoding a halide sensitive variant of eYFP. After 24-48 h later cells were exposed to 10 μM test compound in triplicate and incubated for an additional 24 h. Cells were stimulated for 20 minutes with a in a buffer containing 25 μM forskolin, 45 μM IBMX and 50 μM genistein final concentration. The high content screening assay was performed using a Cellomics platform. Iodide was added robotically to a final concentration of 50 mM and the resulting decrease in fluorescence was measured. Images were taken at time 0 and stored for subsequent use when calculating a mask so that only those cells that express YFP at time 0 are measured. The quenching was detected in 15 images taken over the course of an experiment lasting 40 seconds. Each test compound was compared to the following two controls: a negative control without drugs to assess photobleaching that may occur when the same field of view is repeatedly imaged, and a positive control with cells treated with a known potentiator. Results were generated from 150-300 cells per well.

[1] = 10 μM, 24 h, nc = 100% pc = 69.2

Row | Compound | hit in screen (class letter) (ΔF508-CFTR) | hit in screen (score) (ΔF508-CFTR) | remaining activity at 10 µM (F508del CFTR; [1]) [%] | also measured
1 | c1ccc(CNc2ncnc3[nH]cnc23)cc1 [Aminopurine, 6-benzyl] | W (Medium and weak hits were defined as compounds giving a cell fluorescence signal that was between 2 and 3 or 1 and 2 standard deviations, respectively, above untreated control wells) | 1.6 | – | % YFP quench (F508del CFTR; [1]): 89%
2 | C[C@]12CC[C@@H]3c4ccc(OS(=O)(=O)O)cc4CC[C@H]3[C@@H]1CCC2=O [Estropipate] | W (Medium and weak hits were defined as compounds giving a cell fluorescence signal that was between 2 and 3 or 1 and 2 standard deviations, respectively, above untreated control wells) | 1.0 | 83 | –
3 | Nc1ccc(S(=O)(=O)c2ccc(N)cc2)cc1 [Dapsone] | W (Medium and weak hits were defined as compounds giving a cell fluorescence signal that was between 2 and 3 or 1 and 2 standard deviations, respectively, above untreated control wells) | 1.1 | 88 | –
4 | Clc1ccc(Cn2c(CN3CCCC3)nc3ccccc32)cc1 [Clemizole hydrochloride] | W (Medium and weak hits were defined as compounds giving a cell fluorescence signal that was between 2 and 3 or 1 and 2 standard deviations, respectively, above untreated control wells) | 1.5 | 84 | –
5 | CC(C(=O)O)c1cccc(Oc2ccccc2)c1 (stereo not drawn) [Fenoprofen calcium salt dihydrate] | W (Medium and weak hits were defined as compounds giving a cell fluorescence signal that was between 2 and 3 or 1 and 2 standard deviations, respectively, above untreated control wells) | 1.1 | 88 | –
6 | O=c1c(-c2ccc(O)cc2)coc2cc(O)ccc12 [daidzein] | – | – | – | signal in the trafficking assay (ΔF508-CFTR; 24 hours): consistently elevated signal
7 | CC1(C)[C@@H](O[C@H]2O[C@H](C(=O)O)[C@@H](O)[C@H](O)[C@H]2O[C@@H]2O[C@H](C(=O)O)[C@@H](O)[C@H](O)[C@H]2O)CC[C@]2(C)[C@H]3C(=O)C=C4[C@@H]5C[C@@](C)(C(=O)O)CC[C@]5(C)CC[C@@]4(C)[C@]3(C)CC[C@@H]12 [glycyrrhizic acid] | – | – | – | ΔF508-CFTR correctors identified by highthroughput screening: hit class (ΔF508-CFTR; 24 hours): strong hits
8 | CC(=O)c1ccc(S(=O)(=O)NC(=O)NC2CCCCC2)cc1 [Acetohexamide] | W (Medium and weak hits were defined as compounds giving a cell fluorescence signal that was between 2 and 3 or 1 and 2 standard deviations, respectively, above untreated control wells) | 1.0 | 88 | –
9 | COc1cc(C)nc(-n2nc(C)cc2OC)n1 [Epirizole] | W (Medium and weak hits were defined as compounds giving a cell fluorescence signal that was between 2 and 3 or 1 and 2 standard deviations, respectively, above untreated control wells) | 1.3 | 115 | Bart's scores (F508del CFTR; Functional assay, Prestwick compounds, positive tests / tests): 0/5
10 | CC(C)(C)NCC(O)c1ccc(O)c(CO)c1 (stereo not drawn) [Salbutamol] | W (Medium and weak hits were defined as compounds giving a cell fluorescence signal that was between 2 and 3 or 1 and 2 standard deviations, respectively, above untreated control wells) | 1.0 | 97 | –
11 | CN(Cc1cc(Br)cc(Br)c1N)C1CCCCC1 [bromhexine] | – | – | – | signal in the trafficking assay (ΔF508-CFTR; 24 hours): consistently elevated signal
12 | c1ccc2c(c1)OCC(C1=NCCN1)O2 (stereo not drawn) [Idazoxan hydrochloride] | W (Medium and weak hits were defined as compounds giving a cell fluorescence signal that was between 2 and 3 or 1 and 2 standard deviations, respectively, above untreated control wells) | 1.0 | 103 | –
13 | CCOC(=O)n1ccn(C)c1=S [Carbimazole] | W (Medium and weak hits were defined as compounds giving a cell fluorescence signal that was between 2 and 3 or 1 and 2 standard deviations, respectively, above untreated control wells) | 1.0 | 95 | –
14 | C[C@@H]1CCC[C@H](C)N1NC(=O)c1ccc(Cl)c(S(N)(=O)=O)c1 [Clopamide] | W (Medium and weak hits were defined as compounds giving a cell fluorescence signal that was between 2 and 3 or 1 and 2 standard deviations, respectively, above untreated control wells) | 1.1 | 79 | –
15 | CC(=O)O[C@H]1C[C@@H](OC(C)=O)C(C)(C)[C@@H]2C[C@@H](OC(C)=O)[C@]3(C)[C@H](CC[C@@]4(C)[C@H](c5ccoc5)OC(=O)[C@H]5O[C@@]534)[C@@]12C [khivorin] | – | – | – | signal in the trafficking assay (ΔF508-CFTR; 24 hours): consistently elevated signal
16 | C[C@]12CC[C@H](O)CC1=CC[C@@H]1[C@@H]2CC[C@]2(C)C(=O)CC[C@@H]12 [dyhydroepiandrosterone] | – | – | – | signal in the trafficking assay (ΔF508-CFTR; 24 hours): consistently elevated signal
17 | COC(=O)c1c(Cl)c(Cl)c(C(=O)OC)c(Cl)c1Cl [dacthal] | – | – | – | ΔF508-CFTR correctors identified by highthroughput screening: hit class (ΔF508-CFTR; 24 hours): strong hits
18 | NC(=O)N/N=C/c1ccc([N+](=O)[O-])o1 [Nitrofural] | – | – | 94 | –
19 | didectylkhivorin | – | – | – | signal in the trafficking assay (ΔF508-CFTR; 24 hours): consistently elevated signal
20 | C[C@]12CCC3C(CC[C@H]4C[C@@H](Cl)CC[C@]34C)C1CCC2=O (stereo partly drawn) [3-beta chloroandrostanone] | – | – | – | signal in the trafficking assay (ΔF508-CFTR; 24 hours): consistently elevated signal
21 | N.N.O=C([O-])C1(C(=O)[O-])CCC1.[Pt+2] [carboplatin] | – | – | – | ΔF508-CFTR correctors identified by highthroughput screening: hit class (ΔF508-CFTR; 24 hours): strong hits
22 | Cc1[nH]ccc2c1[nH]c1cc(=O)ccc12 [Harmol hydrochloride dihydrate] | – | – | 92 | –
23 | 1-deacetoxy-1-oxo-3,7 dideactyl khivorin | – | – | – | signal in the trafficking assay (ΔF508-CFTR; 24 hours): consistently elevated signal
24 | O=C1N[C@@H]2[C@@H](O)[C@@H](O)[C@H](O)[C@@H](CO)N2C1=O [kifunesine] | – | – | – | increase in signal, suitability as positive control for the corrector assay screen (ΔF508-CFTR; kifunesine 100 μM, Sodium 4 Phenylbutyrate 1 mM, curcumin 40 μM, 24 hours): not sufficient to act as a positive control
25 | O=C(N[C@H](CO)[C@H](O)c1ccc([N+](=O)[O-])cc1)C(Cl)Cl [chloramphenicol] | – | – | – | ΔF508-CFTR correctors identified by highthroughput screening: hit class (ΔF508-CFTR; 24 hours): strong hits
